Columns and labels:
[1] = test system: OXPHOS deficient cell lines; experiment: Redox Stress Survival assay, extended panel of OXPHOS deficient cell lines; format: cell-based; settings: Homo sapiens, BSO insult, read-out: EC50 values, range over the panel of cell lines
Protocol: Cells were seeded at a density of 4 × 10^3 cells/well into 96-wells black plates and incubated for 24 h. To induce redox stress, semi-logarithmic dilutions of buthionine sulphoximine (BSO, #B2515, Sigma Aldrich) up to 100 µM were added to the cells in culture medium and incubated for 24 h. Cell viability was assessed by quantification of cellular conversion of Calcein AM into fluorescent Calcein. Briefly, after having discarded the BSO containing medium, cells were washed once with M199 without phenol red and loaded with 2 µM Calcein AM (#65-0853-39, Affimetrix eBioscience) in M199 without phenol red for 25 min. At the end of the incubation period, the excess of the dye was washed with M199 without phenol red and Calcein fluorescence was measured with a scanning microplate reader (BMG FLUOstar Omega; Ex. 480 nm, Em. 520 nm). For compound screening and target identification measurements cells were treated with 200 µM BSO alone or in co-incubation with semi-logarithmic dilutions of the test compound. Additionally, where indicated, increasing doses of Auranofin (AFN, #BML-EI206-0100, Enzo) or Aurothioglucose (ATG, #A0606, Sigma Aldrich) were co-incubated with BSO and the test compound. In all cases, cell viability was assessed 24 h after the treatment.

[2] = cited from earlier work
[3] = target: T1, TrxR1, Trx1 and Prdx2 (Homo sapiens, UniProt P32119); experiment: TrxR1-Trx1-Prdx2 system biochemical assay (NADPH consumption); settings: 100 µM compound, H2O2 50 µM, NADPH 75 µM
T1 construct: purchased Novus Biological NBP1-44456 (TrxR1), NBC1-18541 (Trx1), NBC1-25855 (Prdx2)
T1 sequence (P32119 1-198): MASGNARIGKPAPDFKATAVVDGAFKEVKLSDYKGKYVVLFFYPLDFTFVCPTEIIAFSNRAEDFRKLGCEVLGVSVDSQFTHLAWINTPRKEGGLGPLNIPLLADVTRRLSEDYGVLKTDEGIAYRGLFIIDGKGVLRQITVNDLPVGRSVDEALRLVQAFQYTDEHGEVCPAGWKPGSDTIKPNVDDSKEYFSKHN
Protocol: NADPH consumption measurements were performed according to the method described by Nelson et al.[50] in the presence of TrxR1, Trx1 and Prdx2 (Novus Biological NBP1-44456, NBC1-18541 and NBC1-25855, respectively). The incubations contained TrxR1 0.5 µM, Trx1 5 µM, Prdx2 0.5 µM, H2O2 50 µM, NADPH 75 µM in 25 mM potassium phosphate pH 7, 100 mM ammonium sulphate. The experiments were carried out in 96-wells black plates and in triplicate. Briefly, TrxR1, Trx1, and H2O2 were pre-incubated for 5 min at 25 °C for thermal equilibration. Upon addition of NADPH the initial NADPH auto-fluorescence was recorded for 2 min on a scanning microplate reader (PerkinElmer Enspire; Ex. 340 nm, Em. 482 nm) to insure that less than 10% of NADPH is oxidized in the absence of Prdx2. Ultimately Prdx2 was added to start the enzymatic reaction, which was monitored during 60 minutes. To test the effect of the compounds on NADPH consumption, KH176m and KH176 were added at 100 µM final concentration, after the addition of Prdx2. The NADPH fluorescence was followed in time. […] A parallel reaction without TrxR was performed to quantified non-specific NADPH oxidation and used for background correction.

[4] = target: T2, CCDC101 (Homo sapiens, UniProt Q96ES7); experiment: Surface Plasmon Resonance binding; settings: SPR
T2 construct: purchased Abcam Ab124547
T2 sequence (Q96ES7 1-293): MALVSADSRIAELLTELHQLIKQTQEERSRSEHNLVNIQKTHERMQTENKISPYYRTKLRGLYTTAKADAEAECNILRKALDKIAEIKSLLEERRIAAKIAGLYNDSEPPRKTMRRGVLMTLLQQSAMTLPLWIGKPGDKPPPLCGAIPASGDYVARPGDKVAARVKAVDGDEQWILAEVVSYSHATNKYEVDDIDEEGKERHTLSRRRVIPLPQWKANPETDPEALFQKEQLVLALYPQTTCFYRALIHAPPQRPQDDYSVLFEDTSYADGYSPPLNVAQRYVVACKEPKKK
Protocol: Prior to protein immobilization all proteins were dialyzed against HBS-E (10 mM Hepes, 150 mM NaCl, 3 mM EDTA) buffer that was previously filtered through a 0.45 µM membrane using dialyze slide according to the manufacturer instruction. Human recombinant proteins peroxiredoxin 2 (Novus Biological NBC1-25855) and CCDC101 (Abcam Ab124547) were immobilized on CM5 (carboxymethylated dextran covalently attached to a gold surface) using the amine coupling method according to manufacturer’s recommendation (Biacore, GE Healthcare). Briefly the CM5 surface was activated with the mixture of EDC/NHS. Recombinant proteins at dilution 1 µg/ml in a corresponding buffer i.e. Peroxiredoxin 2 and CCDC101 in sodium acetate buffer 100 mM (pH 4.9). The control channel was activated with EDC/NHS. […] KH176 andKH176m were solubilized in HBSS at stock solution 1 mM. […] The sensor chip surface was regenerated with 1 mM HCl. The specific binding profiles were obtained after subtracting the response signal from the control empty channel and from blank-buffer injection. The specific binding was calculated using Biaeval 3 software (Biacore, GE Healthcare) with the postulate of 1:1 ligand/analyte interaction.

[5] = Intracellular conversion of KH176 into KH176m (LC-MS/MS); settings: 24 hours incubation with 3 µM KH176
Protocol: Cells were seeded at a density of 125 × 10^3 cells/well into 6-wells transparent plates (#657160, Greiner Bio-one) and incubated for 24 h. The culture medium was then replaced with fresh medium containing 3 µM KH176 and the cells were incubated for an additional 24 h. At the end of the treatment time, cells were washed twice with ice-cold PBS (#200120169, Thermo Fischer Scientific) before deprotenization with perchloric acid. The samples were then analyzed with standard LC-MS/MS system (Accela HPLC system, Thermo Fischer Scientific) equipped with a Zorbax Eclipse Plus C18 analytical column (Rapid Resolution HD 1.8 μm; 50 × 2.1 mm, Agilent, USA) and coupled with a UHPLC Guard Zorbax Eclipse Plus C18 pre-column (1.8 µm; 5 × 2.1 mm, Agilent). After separation the eluate was directly passed into a TSQ Vantage tandem mass spectrometer (Thermo Fischer Scientific) equipped with an electro-spray ionization source. Detection of the compounds was based on isolation of the protonated molecular ion, [M + H]+, and subsequent MS/MS fragmentations and selected reaction monitoring were performed. Proprietary compounds of Khondrion were used as internal standards.

Cc1c(C)c2c(c(C)c1O)CC[C@@](C)(C(=O)N[C@@H]1CCCNC1)O2.Cl [KH176, (S)-6-hydroxy-2,5,7,8-tetramethyl-N-((R)-piperidin-3-yl)chroman-2-carboxamide hydrochloride]
EC50 [1]: 35 to 270 nM
Safety in Phase 1 ([2]; healthy adult male volunteers, NCT02544217): acceptable safety
Pharmacokinetic properties in Phase 1 ([2]; human, in vivo): good pharmacokinetic properties

CC1=C(C)C(=O)C(CC[C@](C)(O)C(=O)N[C@@H]2CCCNC2)=C(C)C1=O [KH176m]
Effect on NADPH consumption [3]: significantly accelerate the consumption of NADPH
Binding to CCDC101 [4]: no binding
Ratio KH176m/KH176 in cells [5]: 0.48

Reference: paper PMC5920042, “KH176 Safeguards Mitochondrial Diseased Cells from Redox Stress-Induced Cell Death by Interacting with the Thioredoxin System/Peroxiredoxin Enzyme Machinery” (Scientific Reports, 2018)
